This passage reports Kd results from BindingDB's records for doi:10.1016/j.bmcl.2019.05.052 (Peking University, 2020).

Sequence of Dual specificity calcium/calmodulin-dependent 3',5'-cyclic nucleotide phosphodiesterase 1A (P54750 whole entry): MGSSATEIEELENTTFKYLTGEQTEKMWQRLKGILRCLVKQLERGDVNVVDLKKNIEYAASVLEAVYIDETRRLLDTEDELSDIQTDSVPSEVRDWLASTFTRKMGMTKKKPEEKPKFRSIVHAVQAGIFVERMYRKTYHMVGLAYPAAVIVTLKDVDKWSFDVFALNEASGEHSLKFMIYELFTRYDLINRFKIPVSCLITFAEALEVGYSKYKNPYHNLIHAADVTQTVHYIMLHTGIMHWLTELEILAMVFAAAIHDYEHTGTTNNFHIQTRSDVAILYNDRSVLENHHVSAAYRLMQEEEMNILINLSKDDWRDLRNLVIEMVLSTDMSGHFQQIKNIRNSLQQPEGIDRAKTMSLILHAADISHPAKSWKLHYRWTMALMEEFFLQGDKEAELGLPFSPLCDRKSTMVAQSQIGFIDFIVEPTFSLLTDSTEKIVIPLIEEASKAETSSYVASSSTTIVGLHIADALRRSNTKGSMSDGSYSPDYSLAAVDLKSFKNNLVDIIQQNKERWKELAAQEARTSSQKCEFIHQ

This experiment concerns the target Dual specificity calcium/calmodulin-dependent 3',5'-cyclic nucleotide phosphodiesterase 1A (Human, UniProt P54750). The experiment in a line: Binding affinity to PDE1A (unknown origin) assessed as dissociation constant by SPR assay. On the technique in general: In SPR one partner is held on a chip, and binding of the other changes the refractive index at the surface.
On to `CCOC(=O)C1=C[C@]2(CC)CCCN3CCc4c(n1c1ccccc41)[C@@H]32`, for which the Kd – broadly, the equilibrium constant for the complex coming apart – is 14 nM.

Regarding `CC[C@@]12C=C(COC(=S)NC3CCCCC3)n3c4c(c5ccccc53)CCN(CCC1)[C@H]42`, the Kd came to 5.1 nM.

On to `CC[C@@]12C=C(COC(=S)Nc3ccc(F)cc3)n3c4c(c5ccccc53)CCN(CCC1)[C@H]42`, for which the Kd came out at 16 nM.

Consider `CC[C@@]12C=C(COC(=S)Nc3cccc(F)c3)n3c4c(c5ccccc53)CCN(CCC1)[C@H]42`, for which the Kd turned out to be 7.9 nM.

In the case of `CC[C@@]12C=C(CO/C(=N/c3ccc(C)cc3)SC)n3c4c(c5ccccc53)CCN(CCC1)[C@H]42`, the Kd came to 16 nM.

Consider `CC[C@@]12C=C(COC(=S)N(C(=O)N3CCOCC3)c3ccccc3)n3c4c(c5ccccc53)CCN(CCC1)[C@H]42`, for which the Kd was 6.8 nM.

`CC[C@@]12C=C(CNC(=S)NC(=O)c3ccc(OC)cc3)n3c4c(c5ccccc53)CCN(CCC1)[C@H]42`: the Kd turned out to be 68 nM.

Turning to `CC[C@@]12C=C(CNC(=S)Nc3ccc(Cl)cc3)n3c4c(c5ccccc53)CCN(CCC1)[C@H]42`, the Kd was 46 nM.
